Measurements taken from PMC10881971, “Hepa-ToxMOA: a pathway-screening method for evaluating cellular stress and hepatic metabolic-dependent toxicity of natural products” (Scientific Reports, 2024).
Like-named read-outs stand apart in the source and are kept apart here.

What was measured:
[1] = system: AP1, P53, Nrf2, and NF-κB
[2] = system: diabetic C57BL/KsJ-db/db mice; design: method as in PMID 29554661; settings: cited from earlier work
[3] = system: CYP3A5; design: method as in doi:10.1016/j.ccr.2020.213600; settings: cited from earlier work
[4] = system: CYP3A; design: method as in PMID 30778299; settings: cited from earlier work
[5] = system: CYP3A4; settings: cited from earlier work
[6] = system: Nrf2
[7] = system: P53
[8] = system: Hepa-ToxMOA cell lines (HepG2); settings: four Hepa-ToxMOA cell lines, increasing CPPA concentration (6.25, 12.5, 25 μM), 1% S9 treatment, 24 h
[9] = system: AP1; settings: AP1 cell line, CPPA 6.25, 12.5, 25 μM, 24 h, S9 fraction (Fig. 2b)
[10] = system: NF-κB; settings: NF-κB cell line, CPPA 6.25, 12.5, 25 μM, 24 h, S9 fraction (Fig. 2b)
[11] = system: diabetic mice; design: method as in PMID 34678724; settings: cited from earlier work
[12] = system: liver fibrosis; design: method as in PMID 30502394; settings: cited from earlier work
[13] = system: CYP2C19; design: method as in PMID 25815638; settings: causing mitochondrial dysfunction and hepatotoxicity; cited from earlier work
[14] = system: CYP3A4; design: method as in PMID 20959500; settings: via the activation of NR1I2; cited from earlier work

For `CC(C)=CC[C@H](O)C1=CC(=O)c2c(O)ccc(O)c2C1=O` [Alkannin], the “sum of activity scores compared between metabolic activation and non-metabolic conditions” value [1] was “more active without metabolic activation”, the “toxicity in Hepa-ToxMOA cell lines under metabolic activity conditions” value [1] was “reduced toxicity” and the “Toxic (natural products exceeding Score 3, Venn diagram list Fig. 3c)” value ([1]; human) was “S9- only”. For the same compound, the “effect on liver injury” value [2] was “hepatoprotective effects”.
With `CC(=O)O[C@H]1C[C@]2(O)[C@@H]3CC[C@@H]4C[C@@H](O)CC[C@]4(C)[C@H]3CC[C@]2(C)[C@H]1c1ccc(=O)oc1` [Bufotalin] the “active (increased GFP intensity) for all Hepa-ToxMOA cell lines (Fig. 3d)” value [1] was “commonly active”, the “sum of activity scores compared between metabolic activation and non-metabolic conditions” value [1] was “more active without metabolic activation” and the “Toxic (natural products exceeding Score 3, Venn diagram list Fig. 3c)” value ([1]; human) was “S9- only”. The “substrate of CYP3A5” value [3] was “substrates”, the “metabolism by CYP3A” value [4] was “metabolized by CYP3A to 5ß-hydroxy-bufotalin” and the “substrate of CYP3A4” value [5] was “substrates”.
With `O=P1(N(CCCl)CCCl)NCCCO1` (stereo not drawn) [CPPA, cyclophosphamide, reference compound] the GFP intensity [6] was “increased in a dose-dependent manner”, the GFP intensity [7] was “tendency to increase, although not in a dose-dependent manner” and the cell viability [8] was “significantly reduced”. The GFP intensity [9] was “increased in a dose-dependent manner”, the “GFP intensity with S9 fractions compared to without S9 fractions” value [1] was “higher” and the GFP intensity [10] was “increased in a dose-dependent manner”.
With `CC(=O)O[C@H]1[C@H]2O[C@]23[C@@H]2CC[C@@H]4C[C@@H](O)CC[C@]4(C)[C@H]2CC[C@]3(C)[C@H]1c1ccc(=O)oc1` [Cinobufagin] the “GFP expression, P53 cell line” value [7] was “increased”, the “Toxic (natural products exceeding Score 3, Venn diagram list Fig. 3c)” value [1] was “Common” and the “active (increased GFP intensity) for all Hepa-ToxMOA cell lines (Fig. 3d)” value [1] was “commonly active”. The “sum of activity scores compared between metabolic activation and non-metabolic conditions” value [1] was “consistently active regardless of metabolic activation”, the “substrate of CYP3A5” value [3] was “substrates” and the “substrate of CYP3A4” value [5] was “substrates”.
For `CC(C)=CCc1c(O)cc2oc3cc(O)c(O)c(CC=C(C)C)c3c(=O)c2c1O` [Gamma-mangostin], the “fasting blood glucose levels” value [11] is given as “attenuate fasting blood glucose levels” and the “effect on liver fibrosis” value [12] is given as “alleviate liver fibrosis”.
In the case of `O=C(O)c1cc(O)c2c(c1)C(=O)c1cccc(O)c1C2=O` [Rhein], the “metabolic activation by CYP2C19” value [13] is listed as “metabolically activated by CYP2C19”.
For `CC[C@]1(O)C[C@@H]2CN(CCc3c([nH]c4ccccc34)[C@@](C(=O)OC)(c3cc4c(cc3OC)N(C)[C@H]3[C@@](O)(C(=O)OC)[C@H](OC(C)=O)[C@]5(CC)C=CCN6CC[C@]43[C@@H]65)C2)C1` [vinblastine, reference compound], the “induction of CYP3A4” value [14] is given as “induce CYP3A4” and the “substrate of CYP3A4” value [5] is given as “substrate”.
